In ChEMBL document CHEMBL1201862, “PubChem BioAssay data set” (2004):
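Growth conditions: 96-well plates. Treatment: test compound, 48 hours, 5 concentrations. Analysis: linear interpolation between bracketing concentrations; unreached endpoints set to highest concentration. At the GI50, growth is halved.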 Activity calls are given as the source filed them. Cut-off read from the data, not from the text of the source: active = GI50 up to about 1.1 µM and inactive = higher.

Key:
Experiment in all cases: NCI anticancer screen, dose series, 48 h
[1] = tested on: LOX IMVI
[2] = tested on: NCI-H226
[3] = tested on: SK-OV-3
[4] = tested on: NCI-H460
[5] = tested on: NCI/ADR-RES
[6] = tested on: RPMI-8226
[7] = tested on: DLD-1
[8] = tested on: HOP-62
[9] = tested on: EKVX
[10] = tested on: M19-MEL
[11] = tested on: MCF7
[12] = tested on: HOP-18
[13] = tested on: KM-20L2

Measured: GI50

COc1ccc(C2COc3cc(O)c(O)cc3C2)cc1 (stereo unspecified)
inactive: [1] 32.3 µM | [2] 39.6 µM | [3] 86.3 µM | [4] 24 µM | [5] 11 µM | [6] 7.45 µM | [7] 9.93 µM | [8] 76.4 µM | [9] 14.1 µM | [10] 15.1 µM | [11] 37.2 µM | [12] 29.9 µM | [13] 76.2 µM

NC1CCCCC1.O=P(O)(O)C(CSc1ccccc1)P(=O)(O)O
inactive: [1] > 100 µM | [2] > 100 µM | [3] > 100 µM | [4] > 100 µM | [5] > 100 µM | [6] > 100 µM | [7] > 100 µM | [8] > 100 µM | [9] > 100 µM | [10] > 100 µM | [11] > 100 µM | [12] > 100 µM | [13] > 100 µM
